This is an account of results in patent US20230398130A1, “METHODS AND COMPOSITIONS FOR DIFFERENTIATING STEM CELLS” (Massachusetts Institute of Technology, priority 2020, published 2023).

In assay [1] the test system is ISC-enriched organoids. As to the kind of experiment: Primary screen, 384-well 2.5-D organoid differentiation (ENR+CD, 6 days, Target Selective Inhibitor Library, vs whole-plate median): ATP (CellTiter-Glo 3D, CTG). To be noted: for Dose.FC.CTG (log 2 fold change, ATP): vs plate median. A general note: In ATP-based viability assays light output follows the ATP content of the culture.

The subject of assay [2] is ISC-enriched organoids. The assay is described as follows: Primary screen, 384-well 2.5-D organoid differentiation (ENR+CD, 6 days): basal lysozyme secretion (LYZ.NS). The assay is classed as cell-based, murine. To be noted: for Dose.FC.LYZ.NS (log 2 fold change, basal lysozyme secretion): vs plate median. From the text:
(§1) High-throughput screening.

For assay [3], the system named is ISC-enriched organoids. The assay is described as follows: Primary screen, 384-well 2.5-D organoid differentiation (ENR+CD, 6 days): carbachol-induced lysozyme secretion (LYZ.S). The assay is classed as cell-based, murine. To be noted: vs plate median.
Text: as §1

As to `Cc1cc(Nc2cc(N3CCN(C)CC3)nc(Sc3ccc(NC(=O)C4CC4)cc3)n2)n[nH]1` [VX-680 (Tozasertib, MK-0457)], the “Z.CTG (standard z score)” value in the assay with ISC-enriched organoids [1] (dose 0.08 uM) is given as −0.359; in the assay on ISC-enriched organoids [1] (dose 0.40 uM), −1.425; in the assay on ISC-enriched organoids [1] (dose 2.00 uM) it was −1.686; in the assay on ISC-enriched organoids [1] (dose 10.00 uM) it was −2.291. For the same compound, the “Dose.FC.CTG (log 2 fold change, ATP)” value in the assay on ISC-enriched organoids [1] (dose 0.08 uM) is −0.150; in the assay on ISC-enriched organoids [1] (dose 0.40 uM), −0.596; in the assay with ISC-enriched organoids [1] (dose 2.00 uM), −0.706; in the assay with ISC-enriched organoids [1] (dose 10.00 uM), −0.959. Also, the “Z.LYZ.NS (standard z score)” value is −0.371 in the assay on ISC-enriched organoids [2] (dose 0.08 uM), −1.317 with ISC-enriched organoids [2] (dose 0.40 uM), −1.450 in the assay on ISC-enriched organoids [2] (dose 2.00 uM) and −2.069 with ISC-enriched organoids [2] (dose 10.00 uM). Also, the “Dose.FC.LYZ.NS (log 2 fold change, basal lysozyme secretion)” value was −0.043 with ISC-enriched organoids [2] (dose 0.08 uM), −0.151 with ISC-enriched organoids [2] (dose 0.40 uM), −0.166 with ISC-enriched organoids [2] (dose 2.00 uM) and −0.238 in the assay with ISC-enriched organoids [2] (dose 10.00 uM). Also, the “Dose.FC.LYZ.S (log 2 fold change, carbachol-induced lysozyme secretion)” value was −0.078 in the assay on ISC-enriched organoids [3] (dose 0.08 uM), −0.245 in the assay with ISC-enriched organoids [3] (dose 0.40 uM), −0.308 in the assay with ISC-enriched organoids [3] (dose 2.00 uM) and −0.342 with ISC-enriched organoids [3] (dose 10.00 uM).

In the case of `Cc1ccc(NC(=O)C2(c3ccc4c(c3)OC(F)(F)O4)CC2)nc1-c1cccc(C(=O)O)c1` [VX-809 (Lumacaftor)], the “Z.CTG (standard z score)” value with ISC-enriched organoids [1] (dose 0.08 uM) was 0.423; in the assay on ISC-enriched organoids [1] (dose 0.40 uM) it was −0.149; with ISC-enriched organoids [1] (dose 2.00 uM), −0.346; in the assay on ISC-enriched organoids [1] (dose 10.00 uM) it was 0.076. Further, the “Dose.FC.CTG (log 2 fold change, ATP)” value in the assay on ISC-enriched organoids [1] (dose 0.08 uM) is listed as 0.177; with ISC-enriched organoids [1] (dose 0.40 uM), −0.062; in the assay on ISC-enriched organoids [1] (dose 2.00 uM), −0.145; with ISC-enriched organoids [1] (dose 10.00 uM), 0.032. Further, the “Z.LYZ.NS (standard z score)” value in the assay on ISC-enriched organoids [2] (dose 0.08 uM) was 0.634; with ISC-enriched organoids [2] (dose 0.40 uM) it was −0.353; in the assay on ISC-enriched organoids [2] (dose 2.00 uM) it was −0.279; in the assay on ISC-enriched organoids [2] (dose 10.00 uM) it was −0.713. Further, the “Dose.FC.LYZ.NS (log 2 fold change, basal lysozyme secretion)” value in the assay on ISC-enriched organoids [2] (dose 0.08 uM) is 0.073; with ISC-enriched organoids [2] (dose 0.40 uM) it was −0.041; in the assay with ISC-enriched organoids [2] (dose 2.00 uM), −0.032; in the assay with ISC-enriched organoids [2] (dose 10.00 uM), −0.082. For the same compound, the “Dose.FC.LYZ.S (log 2 fold change, carbachol-induced lysozyme secretion)” value is 0.218 in the assay on ISC-enriched organoids [3] (dose 0.08 uM), −0.027 with ISC-enriched organoids [3] (dose 0.40 uM), −0.073 in the assay on ISC-enriched organoids [3] (dose 2.00 uM) and −0.117 with ISC-enriched organoids [3] (dose 10.00 uM).

As to `COc1cc2/c(=N/c3ccc(Br)cc3F)nc[nH]c2cc1OCC1CCN(C)CC1` [Vandetanib (ZD6474)], the “Z.CTG (standard z score)” value in the assay with ISC-enriched organoids [1] (dose 0.08 uM) is recorded as −1.547; in the assay on ISC-enriched organoids [1] (dose 0.40 uM), −0.874; in the assay with ISC-enriched organoids [1] (dose 2.00 uM) it was −2.089; in the assay on ISC-enriched organoids [1] (dose 10.00 uM), −2.880. In addition, the “Dose.FC.CTG (log 2 fold change, ATP)” value with ISC-enriched organoids [1] (dose 0.08 uM) is −0.648; in the assay on ISC-enriched organoids [1] (dose 0.40 uM) it was −0.366; in the assay with ISC-enriched organoids [1] (dose 2.00 uM) it was −0.874; in the assay with ISC-enriched organoids [1] (dose 10.00 uM), −1.206. Besides, the “Z.LYZ.NS (standard z score)” value with ISC-enriched organoids [2] (dose 0.08 uM) is −0.594; in the assay on ISC-enriched organoids [2] (dose 0.40 uM), −0.792; with ISC-enriched organoids [2] (dose 2.00 uM), −2.356; in the assay on ISC-enriched organoids [2] (dose 10.00 uM), −2.594. Moreover, the “Dose.FC.LYZ.NS (log 2 fold change, basal lysozyme secretion)” value was −0.068 in the assay on ISC-enriched organoids [2] (dose 0.08 uM), −0.091 in the assay on ISC-enriched organoids [2] (dose 0.40 uM), −0.271 with ISC-enriched organoids [2] (dose 2.00 uM) and −0.298 with ISC-enriched organoids [2] (dose 10.00 uM). For the same compound, the “Dose.FC.LYZ.S (log 2 fold change, carbachol-induced lysozyme secretion)” value in the assay on ISC-enriched organoids [3] (dose 0.08 uM) is on record as −0.139; with ISC-enriched organoids [3] (dose 0.40 uM), −0.054; with ISC-enriched organoids [3] (dose 2.00 uM) it was −0.384; in the assay with ISC-enriched organoids [3] (dose 10.00 uM), −0.494.
